From publication PMC4986899 (RNA, 2016) come the findings set out here.

The target of this assay is T1, E. coli MetK (Escherichia coli, UniProt P0A817).
T1 sequence (P0A817 2-384): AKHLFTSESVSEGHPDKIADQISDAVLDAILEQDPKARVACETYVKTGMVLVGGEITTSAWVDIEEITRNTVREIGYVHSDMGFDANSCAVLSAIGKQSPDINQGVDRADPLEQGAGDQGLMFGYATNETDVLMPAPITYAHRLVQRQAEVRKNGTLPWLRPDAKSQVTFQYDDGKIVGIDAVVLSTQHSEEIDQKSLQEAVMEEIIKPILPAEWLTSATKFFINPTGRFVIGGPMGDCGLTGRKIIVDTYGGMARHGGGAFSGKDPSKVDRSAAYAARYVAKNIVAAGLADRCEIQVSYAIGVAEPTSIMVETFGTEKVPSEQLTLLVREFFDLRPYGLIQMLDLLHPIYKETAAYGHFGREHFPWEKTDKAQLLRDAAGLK
As to the kind of experiment: preparative synthesis of […]-methyl S-adenosyl methionine. It is filed as biochemical. The following applies: co-substrate 1 mM L-methionine methyl-13C; pH 8.2, 100 mM KCl, 10 mM MgCl2, 30 °C.

For the compound `Nc1ncnc2c1ncn2[C@@H]1O[C@H](COP(=O)(O)OP(=O)(O)OP(=O)(O)O)[C@@H](O)[C@H]1O` [ATP], the “preparative synthesis of 13C-methyl S-adenosyl methionine” value was “synthesized from methionine and ATP by the E. coli MetK enzyme”.
